Data taken from US6169091A, “Bicyclic heteroaromatic compounds as protein tyrosine kinase inhibitors” (Glaxo Wellcome Inc., priority 1995, dated 2001).
Where a name gives a salt, the structure may show the parent alone.

What was measured:
other tyrosine kinases = conditions: Fry et al (Science, 265, 1093 (1994)); cited from earlier work
[1] = tested on: EGF receptor tyrosine kinase; conditions: Fry et al (Science, 265, 1093 (1994)); cited from earlier work
[2] = stated without data, in contrast to the compounds of the invention; cited from earlier work
HB4a ras cells = experiment: cell proliferation assay, HB4a cells transfected with ras; format: cell-based; conditions: Homo sapiens, 96 h, 4 days at 37° C., methylene blue, 0.5% DMSO, control for general toxicity
Procedure: (§1) Compounds of the present invention were tested for protein tyrosine kinase inhibitory activity in a substrate phosphorylation assay and a cell proliferation assay. The cell proliferation assay uses an immortalised human breast epithelial cell line (HB4a) which has been transformed by over-expression of c-erbB-2. Growth of these cells in low serum is dependent upon the c-erbB-2 tyrosine kinase activity. The specificity of the effect of the test compounds on tyrosine kinase dependent growth over general toxicity is assessed by comparison to an HB4a cell line which has been transfected with ras. Cells are plated at 3000/well in 96-well plates in 0.1 ml medium and allowed to attach overnight. test compound is added in 0.1 ml medium, with a final concentration of 0.5% DMSO, and the plates incubated for 4 days at 37° C. The cells are then examined microscopically for evidence of morphological detransformation and cell mass is estimated by staining with methylene blue and measuring the absorbance at 620 nm. The results are shown in the second and third columns of Table 1 below as the IC50 values in nM.

HB4a erbB-2 cells = experiment: cell proliferation assay, HB4a cells transformed by over-expression of c-erbB-2; format: cell-based; conditions: Homo sapiens, 96 h, low serum, 4 days at 37° C., methylene blue, 0.5% DMSO
Procedure: as §1

c-erbB-2 = target: T1, c-erbB-2 (Homo sapiens, UniProt P04626); experiment: c-erbB-2 substrate phosphorylation assay (33P-labelled γ-phosphate from ATP onto PolyGluAlaTyr); format: biochemical; conditions: 1 hour, room temperature, 100 μM ATP, 10 mM MnCl2, pH 7.4, 2% DMSO; recombinant intracellular domain of c-erbB-2
T1 construct: recombinant construct of the intracellular domain of c-erbB-2 that is constitutively active; made in house
Procedure: Compounds of the present invention were tested for protein tyrosine kinase inhibitory activity in a substrate phosphorylation assay and a cell proliferation assay. The substrate phosphorylation assay uses a baculovirus expressed, recombinant construct of the intracellular domain of c-erbB-2 that is constitutively active. […] The reaction is stopped by the addition of EDTA (final concentration 0.1M) and the peptide is then precipitated onto ion exchange filter paper and the incorporated radioactivity determined. The results are shown in the first column of Table 1 below as the IC50 values in nM.

T1 sequence (P04626 676-1255 limits assumed): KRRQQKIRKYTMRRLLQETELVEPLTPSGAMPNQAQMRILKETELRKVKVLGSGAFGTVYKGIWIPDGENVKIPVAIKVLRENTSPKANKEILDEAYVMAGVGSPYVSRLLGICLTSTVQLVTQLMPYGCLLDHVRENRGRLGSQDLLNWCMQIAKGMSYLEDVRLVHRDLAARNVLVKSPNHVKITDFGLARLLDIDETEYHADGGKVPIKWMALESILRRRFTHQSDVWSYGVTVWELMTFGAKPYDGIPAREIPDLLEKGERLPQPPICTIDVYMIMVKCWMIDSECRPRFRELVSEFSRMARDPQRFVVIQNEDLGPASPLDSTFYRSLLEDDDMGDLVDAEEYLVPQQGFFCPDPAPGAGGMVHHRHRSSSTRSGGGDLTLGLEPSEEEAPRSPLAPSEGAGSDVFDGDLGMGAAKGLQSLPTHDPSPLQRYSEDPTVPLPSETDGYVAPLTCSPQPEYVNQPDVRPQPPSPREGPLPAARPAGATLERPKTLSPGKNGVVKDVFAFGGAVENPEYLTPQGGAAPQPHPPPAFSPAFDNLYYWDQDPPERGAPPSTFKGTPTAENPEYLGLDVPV

SMILES | IC50 (c-erbB-2) [nM] | inhibition of other tyrosine kinases (other tyrosine kinases) | inhibition of the EGF receptor tyrosine kinase [1] | in vivo activity [2] | IC50 (HB4a ras cells) [µM] | IC50 (HB4a erbB-2 cells) [nM]
COc1cc2ncnc(Nc3cccc(Br)c3)c2cc1OC |  | micromolar or higher concentrations | picomolar concentrations | does not however exhibit good in vivo activity |  | 
CN(C)c1cc2c(Nc3ccc(OCC4OCCO4)cc3)ncnc2cn1 [Example 20, 6-(N,N-Dimethylamino)-4-[4-(1,3-dioxolan-2-yl)methoxyanilino]pyrido[3,4-d]pyrimidine] | 10 |  |  |  | 46 | 2400
COc1ccccc1COc1ccc(Nc2ncnc3ccsc23)cc1Cl [Example 24, 4-[3-Chloro-4-(2-methoxybenzyloxy)anilino]thieno[3,2-d]pyrimidine hydrochloride] | 50 |  |  |  | 18 | 10000
Fc1ccccc1COc1ccc(Nc2ncnc3ccsc23)cc1Cl [Example 25, 4-[3-Chloro-4-(2-fluorobenzyloxy)anilino]thieno[3,2-d]pyrimidine hydrochloride] | 150 |  |  |  | 3 | 500
Clc1cc(Nc2ncnc3ccsc23)ccc1OCc1ccccc1Br [Example 26, 4-[4-(2-Bromobenzyloxy)-3-chloroanilino]thieno[3,2-d]pyrimidine hydrochloride] | 230 |  |  |  | 30 | 2500
c1ccc(Cc2ccc(Nc3ncnc4ccsc34)cc2)cc1 [Example 28, 4-(4-Benzylanilino)thieno[3,2-d]pyrimidine hydrochloride] | 200 |  |  |  | 13 | 3000
c1ccc(Oc2ccc(Nc3ncnc4ccsc34)cc2)cc1 [Example 29, 4-(4-Phenoxyanilino)thieno[3,2-d]pyrimidine hydrochloride] | 110 |  |  |  | 20 | 5000
FC(F)(Oc1ccc(Nc2ncnc3ccsc23)cc1)c1ccccc1 [Example 30, 4-(4-(a,a-Difluorobenzyloxy)anilino)thieno[3,2-d]pyrimidine hydrochloride] | 860 |  |  |  | 15 | 6000
Cc1csc2ncnc(Nc3ccc(OCc4ccccc4F)c(Cl)c3)c12 [Example 35, 4-[3-Chloro-4-(2-fluorobenzyloxy)anilino]-5-methylthieno[2,3-d]pyrimidine hydrochloride] | 99 |  |  |  | 25 | 8000
Cc1csc2ncnc(Nc3ccc(OCC4CCCCC4)cc3)c12 [Example 36, 4-(4-Cyclohexylmethoxyanilino)-5-methylthieno[2,3-d]pyrimidine hydrochloride] | 500 |  |  |  | 10 | 10000
Cc1csc2ncnc(Nc3ccc(Oc4ccccc4)cc3)c12 [Example 37, 5-Methyl4-(4-phenoxyanilino)thieno[2,3-d]pyrimidine hydrochloride] | 650 |  |  |  | 25 | 17000
c1ccc(Oc2ccc(Nc3ncnc4scc(-c5cccs5)c34)cc2)cc1 [Example 38, 4-(4-Phenoxyanilino)-5-(2-thienyl)thieno[2,3-d]pyrimidine hydrochloride] | 490 |  |  |  | 20 | 20000

The next lines start with results.

IC50 (c-erbB-2) [nM] | SMILES | inhibition of other tyrosine kinases (other tyrosine kinases) | inhibition of the EGF receptor tyrosine kinase [1] | in vivo activity [2] | IC50 (HB4a ras cells) [µM] | IC50 (HB4a erbB-2 cells) [nM]
58 | Clc1cc2c(Nc3ccc(OCc4ccccc4)cc3)ncnc2cn1 [Example 1, 4-(4-Benzyloxyanilino)-6-chloropyrido[3,4-]pyrimidine hydrochloride] |  |  |  | 17 | 2700
26 | Cn1cncc1-c1cc2c(Nc3ccc(OCc4ccccc4)cc3)ncnc2cn1 [Example 2, 4-(4-Benzyloxyanilino)-6-(N-methylimidazol-5-yl)pyrido[3,4-d]pyrimidine] |  |  |  | 3.7 | 690
115 | Cn1ccnc1-c1cc2c(Nc3ccc(OCc4ccccc4)cc3)ncnc2cn1 [Example 3, 4-(4-Benzyloxyanilino)-6-(N-methylimidazol-2-yl)pyrido[3,4-d]pyrimidine] |  |  |  | 44 | 11000
124 | Cn1nccc1-c1cc2c(Nc3ccc(OCc4ccccc4)cc3)ncnc2cn1 [Example 4, 4-(4-Benzyloxyanilino)-6-(N-methylpyrazol-2-yl)pyrido[3,4-d]pyrimidine] |  |  |  | 11 | 2500
14 | c1ccc(COc2ccc(Nc3ncnc4cnc(-c5ccco5)cc34)cc2)cc1 [Example 5, 4-(4-Benzyloxyanilino)-6-(furan-2-yl)pyrido[3,4-d]pyrimidine] |  |  |  | 11 | 500
1.3 | CN(C)c1cc2c(Nc3ccc(OCc4ccccc4)cc3)ncnc2cn1 [Example 7, 4-(4-Benzyloxyanilino)-6-(N,N-dimethylamino)pyrido[3,4-d]pyrimidine] |  |  |  | > 50 | 300
20 | CN1CCN(c2cc3c(Nc4ccc(OCc5ccccc5)cc4)ncnc3cn2)CC1 [Example 8, 4-(4-Benzyloxyanilino)-6-(1-methylpiperazin-4-yl)-pyrido[3,4-d]pyrimidine] |  |  |  | 7.5 | 590
920 | O=S1(=O)CCN(c2cc3c(Nc4ccc(OCc5ccccc5)cc4)ncnc3cn2)CC1 [Example 11, 4-(4-Benzyloxyanilino)-6-(thiomorpholine-1,1-dioxide-4-yl)-pyrido[3,4-d]pyrimidine] |  |  |  | 37 | 10000
24 | CN(C)c1cc2c(Nc3ccc(Oc4ccccc4)cc3)ncnc2cn1 [Example 12, 6-N,N-Dimethylamino-4-(4-phenoxyanilino)pyrido[3,4-d]pyrimidine] |  |  |  | 31 | 1600
900 | O=S(=O)(c1ccccc1)c1ccc(Nc2ncnc3cnc(Cl)cc23)cc1 [Example 14, 6-Chloro-4-(4-phenylsulphonylanilino)pyrido[3,4-d]pyrimidine hydochloride] |  |  |  | 50 | 15000
30 | CN(C)c1cc2c(Nc3ccc(S(=O)(=O)c4ccccc4)cc3)ncnc2cn1 [Example 15, 6-(N,N-Dimethylamino)-4-(4-phenylsulphonylanilino)pyrido[3,4-d]pyrimidine] |  |  |  | 32 | 570
50 | CN1CCN(c2cc3c(Nc4ccc(S(=O)(=O)c5ccccc5)cc4)ncnc3cn2)CC1 [Example 16, 6-(1-Methylpiperazin-4-yl)-4-(4-phenylsulphonylanilino)-pyrido[3,4-d]pyrimidine] |  |  |  | 6.6 | 2400
200 | CN(C)CCN(C)c1cc2c(Nc3ccc(S(=O)(=O)c4ccccc4)cc3)ncnc2cn1 [Example 17, 6-[N-Methyl-N-(2-dimethylaminoethyl)amino]-4-(4-phenylsulphonylanilino)-pyrido[3,4-d]pyrimidine] |  |  |  | 10 | 4400
5 | CN(CCO)c1cc2c(Nc3ccc(S(=O)(=O)c4ccccc4)cc3)ncnc2cn1 [Example 18, 6-[N-Methyl-N-(2-hydroxyethyl)amino]-4-(4-phenylsulphonylanilino)pyrido[3,4-d]pyrimidine] |  |  |  | 28 | 150
300 | c1ccc(COc2ccc(Nc3ncnc4ccsc34)cc2)cc1 [Example 23, 4-(4-Benzyloxyanilino)thieno[3,2-d]pyrimidine hydrochloride] |  |  |  | 5 | 2000
